The results in this text go back to article PMC11763059, “GENI as an AMPK Activator Binds α and γ Subunits and Improves the Memory Dysfunction of Alzheimer’s Disease Mouse Models via Autophagy and Neuroprotection” (Antioxidants, 2025).

Assay [1] addresses T1, AMPK-s1 (α subunit- D148A) (Rattus norvegicus, UniProt P54645+P80385, D159A).
T1 construct: His (N); made in house
Kind of assay: SPR analysis, AMPK mutant s1. The format is binding. On the procedure:
(§1) Mammalian AMPK subunits (His-α1, β1, and γ1) were cloned into a pET-3d vector, and protein expression and purification were similar to the literature.
(§2) SPR analysis was performed with a Biacore T200 instrument (GE Healthcare). Firstly, the purred His-tagged AMPK containing α1β1γ1 protein was captured onto an activated carboxymethylated 5 (CM5) chip using amine coupling to levels ranging from 4000 RU to 6000 RU. Secondly, GENI was dissolved in PBS-P buffer solution (0.05% (v/v) Tween 20 and PBS), and the concentration of GENI was 64 μM. Thirdly, the solution of GENI was diluted to 32 μM, 16 μM, 8 μM, 4 μM, 2 μM, 1 μM and 0.5 μM with PBS-P buffer solution. The sample was filtered by pumping through a […] membrane. A gradient concentration of GENI was injected at a flow rate of 30 μL/min in a running buffer (0.05% (v/v) Tween 20 and PBS). The data were analyzed with Biacore evaluation software (T200 version 2.0) and fitted to the 1:1 Langmuir binding model, and the kinetic parameters were derived.
(§3) The non-covalent interaction between drugs and proteins is an important way to exert drug efficacy, and its mode of action and binding affinity usually determine the utilization and biological activity of drugs. AMPK is a heterotrimer complex consisting of an α subunit containing the kinase domain and two regulatory subunits (β- and γ-). […]
In general terms: Surface plasmon resonance follows binding to a sensor surface in real time, without labels.

The next assay relates to MAPK. Kind of assay: Cellular thermal shift assay (CETSA) in PC12 cells, MAPK. Type of assay: binding. As to conditions: 10 μM GENI 2 h, 60 °C to 80 °C. On the procedure: (§4) In a 60 mm dish containing 5 mL of DMEM, 2 × 10^6 cells were added and incubated for 24 h. In each plate, 10 μM GENI was added and incubated for 2 h. Cells were harvested and heated at a temperature ranging from 60 °C to 80 °C for PC12 cell samples. We obtained a certain amount of cerebral cortex and hippocampus samples, which were added with PBS and ground. After centrifugation, the supernatant was used as a sample, and we measured the protein concentration with a BCA kit (CoWin Biotech Co., Ltd., Taizhou, Jiangsu, China). The protein of the cerebral cortex or hippocampus was incubated with 10 μM GENI at 37 °C for 2 h and heated from 65 °C to 100 °C for the cerebral cortex sample but 43 °C to 67 °C and 65 °C to 100 °C for the hippocampus sample. Equal volumes of supernatant heated at each temperature point for the control and treatment groups were used for Western blot analysis with the antibody for specific proteins.

Assay [2] has as its system T2, AMPK α subunit ASP166 mutated into ALA166.
T2 construct: His (N); made in house
Kind of assay: SPR analysis, AMPK α subunit D166 replaced with A166. Type of assay: binding. The protocol: as §1, §2, §3

Assay [3] concerns the target T3, AMPK-s7 (γ subunit- D316A) (Rattus norvegicus, UniProt P54645+P80385, D316A).
T3 construct: His (N); made in house
Kind of assay: SPR analysis, AMPK mutant s7. Type of assay: binding. The protocol:
as §1, §2
The non-covalent interaction between drugs and proteins is an important way to exert drug efficacy, and its mode of action and binding affinity usually determine the utilization and biological activity of drugs. AMPK is a heterotrimer complex consisting of an α subunit containing the kinase domain and two regulatory subunits (β- and γ-). Different action sites have varied or even opposite pharmacological effects. The molecular mechanism of interaction between the protein and molecule should be investigated thoroughly. After co-incubation of GENI and AMPK, LC-MS/MS measurements were performed to predict the binding sites. As shown in Extended Data Figure S2, ASP148, ASP157 and ASP166 of the AMPK α subunits and LYS148, ASP156, LYS309, and ASP316 of the AMPK γ subunit were possible to the binding sites of GENI. […] Thus, all of these seven sites affected the binding of GENI and AMPK to varying degrees, and they were located in the C lobe kinase domain of the AMPK α subunit, and the CBS2 and CBS4 domain of the AMPK γ subunit, respectively.

A further assay concerns AMPK. Kind of assay: Cellular thermal shift assay (CETSA) in PC12 cells, AMPK. Type of assay: binding. As to conditions: 10 μM GENI 2 h, 60 °C to 80 °C. The protocol:
as §4

For the next assay, the system named is BV-2 microglia. The assay is described as follows: BV-2 microglial activity assay (Iba1 staining). As to conditions: GENI 1, 3, and 10 μM, LPS 1 μg/mL. Type of assay: cell-based, murine. The protocol: BV-2 cells (2.5 × 10^4) were seeded in 24-well plates. […] We then removed the medium, washed the cells three times with PBS, and fixed the cells with 4% paraformaldehyde (500 μL/well) for 20 min at room temperature. We washed the cells three times with PBS and added Quick Block^TM immunostaining blocking solution (500 μL/well) to block for 60 min. After removing the blocking solution, we added 200 μL of the primary antibody (Anti-Iba1 rabbit monoclonal antibody, 1:1000, abcam178847) to each well and incubated the samples overnight at 4 °C. The next day, the supernatant was discarded, washed three times with PBS, and incubated with the secondary antibody Cart anti-rabbit IgG (1:1000) at room temperature for 1 h. Nuclei were stained with DAPI (250 μL/well) for 5 min, and the fluorescence was observed under a fluorescent inverted microscope (Olympus IX53, Tokyo, Japan).

The mark [4] stands for this setting: SPR, association rate, read-out: Ka.

T3 sequence (P54645 13-559 limits assumed): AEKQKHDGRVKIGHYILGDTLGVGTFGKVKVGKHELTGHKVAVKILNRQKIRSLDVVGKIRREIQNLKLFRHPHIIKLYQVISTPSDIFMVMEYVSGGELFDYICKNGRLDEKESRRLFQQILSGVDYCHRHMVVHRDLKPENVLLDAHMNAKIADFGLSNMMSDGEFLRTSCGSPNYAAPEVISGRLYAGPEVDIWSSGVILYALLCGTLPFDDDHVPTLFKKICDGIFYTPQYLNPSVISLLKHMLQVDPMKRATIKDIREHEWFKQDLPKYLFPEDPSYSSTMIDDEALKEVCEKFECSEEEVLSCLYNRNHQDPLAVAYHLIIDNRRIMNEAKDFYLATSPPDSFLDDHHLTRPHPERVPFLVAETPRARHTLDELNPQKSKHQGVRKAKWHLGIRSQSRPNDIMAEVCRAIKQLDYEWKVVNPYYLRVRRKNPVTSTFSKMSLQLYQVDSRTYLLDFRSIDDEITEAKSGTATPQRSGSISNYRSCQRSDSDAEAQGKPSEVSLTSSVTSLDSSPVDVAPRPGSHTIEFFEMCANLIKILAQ
T3 sequence (P80386 whole entry partner): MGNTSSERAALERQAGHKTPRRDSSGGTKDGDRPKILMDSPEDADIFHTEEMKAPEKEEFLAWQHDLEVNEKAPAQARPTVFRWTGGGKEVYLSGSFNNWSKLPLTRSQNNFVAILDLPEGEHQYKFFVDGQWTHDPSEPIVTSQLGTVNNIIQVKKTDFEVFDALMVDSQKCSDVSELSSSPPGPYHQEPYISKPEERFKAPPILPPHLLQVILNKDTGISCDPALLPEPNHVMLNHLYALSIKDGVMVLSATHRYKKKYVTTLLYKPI
T3 sequence (P80385 whole entry D316A): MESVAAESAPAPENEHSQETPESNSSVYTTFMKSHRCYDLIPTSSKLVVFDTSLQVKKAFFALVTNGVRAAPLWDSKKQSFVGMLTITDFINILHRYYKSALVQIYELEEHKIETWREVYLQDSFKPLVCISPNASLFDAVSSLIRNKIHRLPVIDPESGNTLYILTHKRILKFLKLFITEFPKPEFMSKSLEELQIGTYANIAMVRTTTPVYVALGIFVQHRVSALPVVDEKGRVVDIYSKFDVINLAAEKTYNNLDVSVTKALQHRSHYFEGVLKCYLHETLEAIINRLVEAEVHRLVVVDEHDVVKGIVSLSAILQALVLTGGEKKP
T1 sequence (P54645 13-559 D159A limits assumed): as the sequence (P54645 13-559 limits assumed) above, with D147A counted along it
T1 sequence (P80386 whole entry partner): as the sequence (P80386 whole entry partner) above
T1 sequence (P80385 whole entry): as the sequence (P80385 whole entry D316A) above, with A316D counted along it

Consider `CC(C)CCOC(=O)C1=CO[C@@H](O[C@@H]2O[C@H](CO)[C@@H](O)[C@H](O)[C@H]2O)C2C(CO)=CCC12` (stereo partly drawn) [GENI, Geniposidic 4-isoamyl ester], for which the “dose-dependent response in SPR” value in assay [1] (D148 replaced with A148) and in assay [2] was “No significant dose-dependent response” in each case. The kon in assay [1] (setting [4]) stood at 9360 M⁻¹ s⁻¹; in assay [3] (setting [4]), 808 M⁻¹ s⁻¹. For the same compound, in the assay with MAPK, the “thermal stability of MAPK (CETSA)” value is “not obvious”. Moreover, the Kd (in general, the concentration at which binding is half-saturated) in assay [3] (SPR) was determined as 6.46 µM. Moreover, in assay [3] (point mutation of D316, versus wild-type), the “response (RU) in SPR” value is reported as “significantly reduced”. For the same compound, the “thermal stability of AMPK (CETSA)” value in the assay on AMPK is given as “sensibly increase the thermal stability”. For the same compound, the “LPS-induced activation in BV-2 microglia” value in the assay on BV-2 microglia is “inhibiting”.
